Reference: PubChem BioAssay AID1896 (NMMLSC, 2009)
Activity calls are given as the source filed them. How the calls were made is not given here.

Target: Mitogen-activated protein kinase kinase kinase 3 (Homo sapiens) (UniProt Q99759)
Assay: MEKK3 PB1-MEK5 interaction blockers – biochemical, bead multiplex flow cytometry, wildtype, dose response (AID 1896)
Conditions: bead-based multiplex flow cytometry, MEK5-MEKK3 PB1 binding; for Ki: measured here: Ki from EC50

Mitogen-activated protein kinase kinase kinase 3 (Homo sapiens), sequence (Q99759 whole entry, looked up): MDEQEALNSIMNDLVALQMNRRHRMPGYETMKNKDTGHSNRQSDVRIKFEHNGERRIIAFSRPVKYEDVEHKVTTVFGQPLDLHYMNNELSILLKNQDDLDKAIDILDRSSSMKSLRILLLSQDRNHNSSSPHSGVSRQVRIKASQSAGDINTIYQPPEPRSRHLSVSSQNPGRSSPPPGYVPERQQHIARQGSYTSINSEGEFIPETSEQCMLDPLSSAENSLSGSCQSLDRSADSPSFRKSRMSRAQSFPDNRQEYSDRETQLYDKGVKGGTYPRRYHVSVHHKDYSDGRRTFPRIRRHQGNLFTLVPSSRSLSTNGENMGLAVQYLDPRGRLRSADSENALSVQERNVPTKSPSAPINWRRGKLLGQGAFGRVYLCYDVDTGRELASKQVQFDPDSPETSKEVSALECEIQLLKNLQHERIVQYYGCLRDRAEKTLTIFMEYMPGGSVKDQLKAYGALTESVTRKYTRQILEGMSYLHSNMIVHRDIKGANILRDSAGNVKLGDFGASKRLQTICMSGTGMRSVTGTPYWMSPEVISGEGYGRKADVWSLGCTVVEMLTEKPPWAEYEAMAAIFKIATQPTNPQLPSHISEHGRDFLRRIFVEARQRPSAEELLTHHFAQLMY

| Compound | EC50 | Ki [µM] |
| --- | --- | --- |
| C#CCOCCOCCOCCNc1nc(N2CCN(C(=O)[C@H](Cc3ccc(O)cc3)n3cc([C@@H](N)C(C)CC)nn3)CC2)nc(N2CCN(C(=O)[C@H](Cc3cc4ccccc4[nH]3)n3cc([C@@H](N)Cc4ccc(O)cc4)nn3)CC2)n1 (stereo partly specified) | > 30 µM (inactive) | – |
| C#CCOCCOCCOCCNc1nc(N2CCN(C(=O)C([C@@H](C)CC)n3cc(C(N)COC(=O)C(F)(F)F)nn3)CC2)nc(N2CCN(C(=O)[C@H](CCCCN)n3cc(C(N)[C@H](C)CC)nn3)CC2)n1 (stereo partly specified) | > 30 µM (inactive) | – |
| CN(C)CCNc1ncnc2c1sc1nc(-c3ccccc3)c3c(c12)CCCC3 | > 30 µM (inactive) | – |
| O=C(CCCC(=O)N(CC(=O)NC1CCCC1)C1CCCC1)Nc1ccccn1 | > 30 µM (inactive) | – |
| CCC(/C=C1\Sc2ccc(OC)cc2N1CCO)=C\c1sc2ccc(OC)cc2[n+]1CCO | 2.83 µM | 2.42 |
| COc1ccc(Cn2cc3c(-c4ccc(F)cc4)nnc-3c3cc(OC)c(OC)cc32)cc1 | > 30 µM (inactive) | – |
| Brc1ccc(N=C/C=C/C=C/Nc2ccc(Br)cc2)cc1 | 10.6 µM | 9.04 |
| C#CCOCCOCCOCCNc1nc(N2CCN(C(=O)C(Cc3cc4ccccc4[nH]3)n3cc(C(N)C(C)CC)nn3)CC2)nc(N2CCN(C(=O)C(Cc3cc4ccccc4[nH]3)n3cc(C(N)C(C)CC)nn3)CC2)n1 (stereo unspecified) | > 30 µM (inactive) | – |
| C#CCOCCOCCOCCNc1nc(N2CCN(C(=O)[C@H]([C@@H](C)CC)n3cc([C@@H](N)Cc4ccc(O)cc4)nn3)CC2)nc(N2CCN(C(=O)[C@H](CCCCN)n3cc([C@@H](N)CC(C)C)nn3)CC2)n1 | > 30 µM (inactive) | – |
| COc1ccccc1N1CCN(S(=O)(=O)c2ccc(Cl)s2)CC1 | > 30 µM (inactive) | – |
| COc1ccc(-c2[nH]ncc2CN2CCCCCCC2)c(OC)c1 | > 30 µM (inactive) | – |

The next lines start with the values.

| EC50 | Ki [µM] | Compound |
| --- | --- | --- |
| > 30 µM (inactive) | – | CCOC(=O)C1=C(c2ccccc2)NC(N)=NC1c1ccc(OCc2ccc(C(=O)OC)cc2)cc1 (stereo unspecified) |
| 4.55 µM | 3.89 | CCNc1ccc2noc3c2c1C(=O)c1ccccc1-3 |
| > 30 µM (inactive) | – | COc1ccc(NC(=O)N(Cc2cc3cc(C)ccc3[nH]c2=O)CC2CCCO2)cc1 (stereo unspecified) |
| 3.93 µM | 3.36 | CCN1C(c2ccccc2)=C(c2ccccc2)S/C1=C\C=C1/SC(=S)N(C)C1=O |
| > 30 µM (inactive) | – | CC(=O)Nc1cccc2c1C(=O)N(c1cccc(C)c1)C2=O |
| > 30 µM (inactive) | – | O=C1c2ccccc2-c2onc3ccc(NCCCn4ccnc4)c1c23 |
| > 30 µM (inactive) | – | c1ccc(CNc2nc(NCc3ccccc3)c3ccccc3n2)cc1 |
| > 30 µM (inactive) | – | CCCCCCCCCCOC(=O)Cn1c(COc2cccc(C)c2)[n+](C)c2ccccc21 |
| > 30 µM (inactive) | – | CCN(CC)CCOc1ccc2c(c1)C(=NNC(=O)c1ccccn1)c1cc(OCCN(CC)CC)ccc1-2 |
| > 30 µM (inactive) | – | C/C(=N\NC(=O)c1cc(O)cc(O)c1)c1ccc(NC(=O)Cc2ccccc2)cc1 |
| > 30 µM (inactive) | – | O=C(Nc1ccc(Cl)cn1)c1ccc2c(Cl)c3c(nc2c1)CCC3 |
